Results reported in patent US20080262031A1, “4-Aminoquinoline Derivatives as Antimalarials” (CTG PHARMA S.R.L., priority 2005, published 2008).
Values after ≈ are worked out from the molar mass of the structure shown. Where two headings read alike, the source gives them in different places.

Columns and labels:
[1] = tested on: chloroquine-resistant (CQ-R) Plasmodium falciparum strain W2; assay: in vitro antimalarial activity on chloroquine-resistant strain W2; type: cell-based
[2] = tested on: chloroquine-sensitive (CQ-S) Plasmodium falciparum strain D10; assay: in vitro antimalarial activity on chloroquine-sensitive strain D10; type: cell-based
[3] = P. falciparum strain W2, chloroquine-resistant, n = 4 ± SD, read-out: W2 (CQ-R) IC50
[4] = P. falciparum strain D10, chloroquine-sensitive, n = 4 ± SD, read-out: D10 (CQ-S) IC50

SMILES | IC50 ([1]; W2, read-out: W2 (CQ-R) IC50) [µg/mL] | IC50 ([2]; D10, read-out: D10 (CQ-S) IC50) [µg/mL] | IC50 [1, 3] [µg/mL] | IC50 [2, 4] [µg/mL]
CCN(CC)CCCC(C)Nc1ccnc2cc(Cl)ccc12 (stereo not shown) [Chloroquine, chloroquine, reference compound] | 0.17 ± 0.0413 (≈ 0.532 µM) | 0.0097 ± 0.0036 (≈ 0.0303 µM) | – | –
Clc1ccc2c(NCCC34CCCN3CCC4)ccnc2c1 [Example 1, N-(7-chloro-quinolin-4-yl)-2-(tetrahydropyrrolizin-7a-yl)-ethylamine] | – | – | 0.0173 ± 0.0024 (≈ 0.0548 µM) | 0.0017 ± 0.0014 (≈ 0.00538 µM)
Clc1ccc2c(NCC34CCCN3CCC4)ccnc2c1 [Example 2, N-(7-chloro-quinolin-4-yl)-(tetrahydropyrrolizin-7a-yl)-methylamine] | – | – | 0.0087 ± 0.0035 (≈ 0.0288 µM) | 0.0092 ± 0.0022 (≈ 0.0305 µM)
Oc1cc(Nc2ccnc3cc(Cl)ccc23)ccc1CNC[C@@H]1CCCN2CCCC[C@H]12 [Example 3] | – | – | 0.0114 ± 0.0021 (≈ 0.0253 µM) | 0.0103 ± 0.0019 (≈ 0.0228 µM)
Oc1cc(Nc2ccnc3cc(Cl)ccc23)ccc1CNCCC12CCCN1CCC2 [Example 4] | – | – | < 0.08 | 0.0172 ± 0.0019 (≈ 0.0394 µM)
